Here are results for 13 compounds from ChEMBL document CHEMBL1201862, “PubChem BioAssay data set” (2004).

Molecules are shown by their SMILES.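 Dose response: 5 concentrations. Exposure: 48 h. Format: 96-well plates. Endpoint: linear interpolation; highest concentration if not reached. Abbreviation: GI50, concentration required for 50% inhibition of growth.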 Calls of active or inactive are those of the source. Cut-off read from the data, not from the text of the source: active = GI50 up to about 1.1 µM and inactive = higher.

Among the test systems are 786-0; A498; A549; ACHN; HCC 2998; HCT-15; K562; Malme-3M; NCI-H226; OVCAR-4; RXF 393; SK-MEL-5; SNB-19; SW-620; U-251; UO-31; SNB-75.
Assay in all cases: inhibition of tumour cell growth, NCI panel, 48 h

In the case of `C/C(=C\C(C[C@](C)(O)C(O)CCC#C[Si](C)(C)C)S(=O)(=O)c1ccccc1)CC/C=C/CO[Si](C)(C)C(C)(C)C` (stereo partly specified), the GI50 in the experiment on 786-0 was 17 µM (inactive); with A498, 17.5 µM (inactive); with A549 it was 15 µM (inactive); with ACHN it was 16 µM (inactive); in the experiment on HCC 2998, 21 µM (inactive); with HCT-15, 17.4 µM. In addition, the GI50 in the experiment on K562 is 10.7 µM (inactive); in the experiment on Malme-3M, 20.7 µM (inactive); in the experiment with NCI-H226, 22.1 µM (inactive); in the experiment with OVCAR-4, 13.8 µM (inactive); with RXF 393, 14.7 µM (inactive); in the experiment on SK-MEL-5 it was 13.6 µM (inactive). Moreover, the GI50 in the experiment on SNB-19 was 19.8 µM (inactive); in the experiment on SW-620, 17.3 µM (inactive); with U-251, 13.4 µM (inactive); in the experiment with UO-31 it was 21.9 µM (inactive).

`CC(Oc1ccc2c(-c3ccc(Cl)cc3)cc(=O)oc2c1)C(=O)O` (stereo unspecified): the GI50 with 786-0, in the experiment with A498, with A549, in the experiment with ACHN, in the experiment on HCC 2998 and in the experiment with K562 was > 100 µM (inactive) throughout. Also, the GI50 in the experiment with Malme-3M, in the experiment with NCI-H226, with OVCAR-4, in the experiment on RXF 393, in the experiment with SK-MEL-5 and with SNB-19 was > 100 µM (inactive) in each case. Also, the GI50 with SNB-75, in the experiment with SW-620, in the experiment on U-251 and in the experiment on UO-31 was > 100 µM (inactive) each time.

For the compound `C=C(C)CC(C)(c1cc2ccccc2n1C)N1CCOCC1` (stereo unspecified), the GI50 was > 100 µM (inactive) in the experiment with 786-0; 59.2 µM (inactive) in the experiment on A549; 62.2 µM (inactive) in the experiment on ACHN; > 100 µM (inactive) in the experiment with HCC 2998; 75.7 µM with HCT-15; > 100 µM (inactive) with Malme-3M. Moreover, the GI50 in the experiment with NCI-H226 was 69.8 µM (inactive); with OVCAR-4, > 100 µM (inactive); with RXF 393, 65.5 µM (inactive); in the experiment on SK-MEL-5 it was 42.2 µM (inactive); with SNB-19 it was > 100 µM (inactive); in the experiment with SNB-75, > 100 µM (inactive). For the same compound, the GI50 in the experiment with SW-620 is > 100 µM (inactive); in the experiment on UO-31, 22.9 µM (inactive).

Take `O=C(/C=C/c1ccccc1)Oc1cccc2cccnc12`: the GI50 was > 44.4 µM (inactive) in the experiment on 786-0; 12.9 µM (inactive) in the experiment on A549; 20.3 µM (inactive) in the experiment with ACHN; 43.2 µM (inactive) with HCC 2998; 6.17 µM in the experiment on HCT-15; 3.85 µM (inactive) in the experiment on K562. Also, the GI50 with Malme-3M is 3.8 µM (inactive); in the experiment with NCI-H226, 26.7 µM (inactive); with OVCAR-4, 6.87 µM (inactive); with RXF 393, 21.1 µM (inactive); in the experiment with SK-MEL-5, 7.74 µM (inactive); with SNB-19, 31.4 µM (inactive). The GI50 in the experiment on SNB-75 is 14.3 µM (inactive); in the experiment with SW-620, 3.82 µM (inactive); in the experiment with U-251, 4.71 µM (inactive); in the experiment on UO-31, 6.35 µM (inactive).

As for `CC(C)(C)N/N=C(\C(=O)Nc1cccc(Cl)c1)C1C(=O)Nc2ccccc2[S+]1[O-]` (stereo unspecified), the GI50 was > 100 µM (inactive) in the experiment on 786-0; > 100 µM (inactive) in the experiment with A549; > 100 µM (inactive) in the experiment on ACHN; > 100 µM (inactive) in the experiment with HCC 2998; greater than 100 µM in the experiment with HCT-15; 21.6 µM (inactive) with Malme-3M. In addition, the GI50 with NCI-H226, in the experiment on OVCAR-4, with RXF 393, in the experiment with SK-MEL-5, in the experiment on SNB-19 and in the experiment on SNB-75 was > 100 µM (inactive) throughout. Also, the GI50 with SW-620 and in the experiment with UO-31 was > 100 µM (inactive) in each case.

For the compound `[O-][S+]1c2ccccc2N=C(c2ccc3ccccc3c2)CC1C1=CC=CCC1` (stereo unspecified), the GI50 with 786-0 is 16 µM (inactive); in the experiment with A549, 26.3 µM (inactive); with ACHN it was 19 µM (inactive); in the experiment with HCC 2998, 13.1 µM (inactive); in the experiment with HCT-15, 16.7 µM; with K562, 10.3 µM (inactive). For the same compound, the GI50 in the experiment on Malme-3M was 27.4 µM (inactive); in the experiment with NCI-H226, 19.4 µM (inactive); in the experiment on OVCAR-4 it was > 10 µM (inactive); in the experiment on RXF 393, 16.8 µM (inactive); in the experiment on SK-MEL-5 it was 16.6 µM (inactive); in the experiment with SNB-19, > 10 µM (inactive). In addition, the GI50 in the experiment with SNB-75 is 17.9 µM (inactive); with SW-620, 18.4 µM (inactive); in the experiment on UO-31, 13.8 µM (inactive).

Take `CSC[S+]([O-])C[C@H](CO)NC(=O)/C=C/c1c(C)[nH]c(=O)[nH]c1=O` (stereo partly specified): the GI50 with 786-0 was 1.74 µM (inactive); in the experiment with A498, 0.378 µM (active); with A549, 1.15 µM (inactive); with ACHN it was 1.48 µM (inactive); with HCC 2998 it was 1.45 µM (inactive); with HCT-15, 1.83 µM. The GI50 in the experiment with K562 was 1.32 µM (inactive); with Malme-3M, 0.492 µM (active); with NCI-H226, 0.67 µM (active); in the experiment on OVCAR-4, 0.251 µM (active); with RXF 393, 0.804 µM (active); in the experiment on SK-MEL-5, 2.44 µM (inactive). In addition, the GI50 was 0.52 µM (active) in the experiment with SNB-19, 0.236 µM (active) in the experiment with SNB-75, 2.21 µM (inactive) with SW-620 and 1.61 µM (inactive) in the experiment with UO-31.

For the compound `COC(=O)C12CC(C3CC31)C1CC12` (stereo unspecified), the GI50 with 786-0 is > 100 µM (inactive); in the experiment on A498, > 100 µM (inactive); in the experiment on A549 it was > 100 µM (inactive); in the experiment with ACHN, > 100 µM (inactive); in the experiment with HCC 2998, > 100 µM (inactive); in the experiment on HCT-15 it was greater than 100 µM. For the same compound, the GI50 in the experiment with K562, with Malme-3M, in the experiment on NCI-H226, in the experiment on OVCAR-4, with SK-MEL-5 and in the experiment with SNB-19 was > 100 µM (inactive) in each case. Also, the GI50 in the experiment on SW-620, in the experiment on U-251 and in the experiment on UO-31 was > 100 µM (inactive) throughout.

`CC1=Nn2c(nnc2-c2ccc(Cl)cc2)NC(C)(C)C1`: the GI50 in the experiment on 786-0 is > 100 µM (inactive); in the experiment on A498 it was > 100 µM (inactive); in the experiment on A549, > 100 µM (inactive); in the experiment with ACHN, > 100 µM (inactive); in the experiment on HCC 2998, > 100 µM (inactive); in the experiment on HCT-15 it was greater than 100 µM. In addition, the GI50 in the experiment with K562, with Malme-3M, with NCI-H226, in the experiment on OVCAR-4, in the experiment on SK-MEL-5 and in the experiment on SNB-19 was > 100 µM (inactive) in each case. Besides, the GI50 with SW-620, in the experiment with U-251 and in the experiment with UO-31 was > 100 µM (inactive) each time.

On to `CN(CC(=O)O)S(=O)(=O)c1ccc2ccccc2c1`, for which the GI50 is > 100 µM (inactive) in the experiment with 786-0; > 100 µM (inactive) in the experiment on A498; > 100 µM (inactive) with A549; > 100 µM (inactive) in the experiment on ACHN; > 100 µM (inactive) in the experiment on HCC 2998; greater than 100 µM with HCT-15. The GI50 in the experiment with K562, in the experiment with Malme-3M, with OVCAR-4, with RXF 393, in the experiment on SK-MEL-5 and in the experiment on SNB-19 was > 100 µM (inactive) each time. The GI50 in the experiment with SNB-75, in the experiment on SW-620, with U-251 and in the experiment on UO-31 was > 100 µM (inactive) each time.

For the compound `CC(C)(C)c1cc(C(O)(C(F)(F)F)C(F)(F)F)c2c(c1)C(C(F)(F)F)(C(F)(F)F)OC(C)(C(C)(C)C)N2` (stereo unspecified), the GI50 in the experiment with 786-0 is 3.34 µM (inactive); in the experiment with A549, 3.59 µM (inactive); with ACHN, 3.06 µM (inactive); with HCC 2998, 6.56 µM (inactive); in the experiment with HCT-15, 3.83 µM; with K562, 2.9 µM (inactive). The GI50 with Malme-3M is 6.65 µM (inactive); with NCI-H226, 2.27 µM (inactive); in the experiment on OVCAR-4 it was 4.62 µM (inactive); in the experiment with RXF 393, 4.43 µM (inactive); in the experiment on SK-MEL-5 it was 2.01 µM (inactive); in the experiment with SNB-19 it was 5.41 µM (inactive). For the same compound, the GI50 with SNB-75 was 2 µM (inactive); in the experiment with SW-620, 3.68 µM (inactive); in the experiment on U-251 it was 2.69 µM (inactive); in the experiment with UO-31, 2.97 µM (inactive).

Take `O=c1/c(=C/c2ccccc2[N+](=O)[O-])sc2nnc(-c3cccnc3)n12`: the GI50 with 786-0 is > 100 µM (inactive); in the experiment on A498, > 100 µM (inactive); in the experiment with A549, > 100 µM (inactive); in the experiment with ACHN it was > 100 µM (inactive); in the experiment on HCC 2998, > 100 µM (inactive); in the experiment with HCT-15 it was greater than 100 µM. Also, the GI50 in the experiment with K562 is 74.1 µM (inactive); with Malme-3M, > 100 µM (inactive); with NCI-H226 it was > 100 µM (inactive); in the experiment with OVCAR-4, > 100 µM (inactive); with RXF 393, > 100 µM (inactive); in the experiment on SK-MEL-5, > 100 µM (inactive). The GI50 in the experiment on SNB-19 was 17.7 µM (inactive); with SNB-75 it was > 100 µM (inactive); in the experiment on SW-620, 7.03 µM (inactive); in the experiment on UO-31, > 100 µM (inactive).

As to `CCCCCCCCCCCCSC(=S)c1c(C)[nH]n(-c2ccccc2)c1=O`, the GI50 with 786-0 is 15.6 µM (inactive); in the experiment on A498, 26.7 µM (inactive); with A549, 11.8 µM (inactive); in the experiment with ACHN, 16.9 µM (inactive); with HCC 2998, 5.36 µM (inactive); in the experiment on HCT-15 it was 1.93 µM. In addition, the GI50 in the experiment with K562 is 6.61 µM (inactive); with Malme-3M, 10.7 µM (inactive); in the experiment on NCI-H226, 14.9 µM (inactive); with OVCAR-4 it was 8.36 µM (inactive); with RXF 393, 10.3 µM (inactive); with SK-MEL-5, 5.58 µM (inactive). The GI50 is 12.4 µM (inactive) in the experiment with SNB-19, 16.4 µM (inactive) in the experiment with SW-620, 2.85 µM (inactive) with U-251 and 13.6 µM (inactive) in the experiment on UO-31.
